Each block holds one compound with its values, some of them ahead of it. Activity calls are given as the source filed them.
Tests used:
[1] = Fraction unbound in rat plasma at 2 uM after 4 hrs by LC-MS/MS analysis; assay type: ADME, cell-free
[2] = Half life in Sprague-Dawley rat at 2 mg/kg administered as single dose via oral gavage by LC-MS/MS analysis; assay type: ADME, organism-based; conditions: in vivo
[3] = Cmax in Sprague-Dawley rat at 2 mg/kg administered as single dose via oral gavage by LC-MS/MS analysis; assay type: ADME, organism-based; set-up: dose 2 mg/kg, route oral; conditions: in vivo
[4] = Ratio of total drug level in iv dosed rat brain to plasma measured 2 hrs post dose; assay type: ADME, organism-based; conditions: read-out: BPR
[5] = Initial plasma concentration in Sprague-Dawley rat at 0.5 mg/kg administered as single iv bolus by LC-MS/MS analysis; assay type: ADME, organism-based
[6] = biological target: Sodium channel protein type 4 subunit alpha (Homo sapiens, UniProt P35499); assay type: ADME
[7] = Clearance in Sprague-Dawley rat administered as single iv bolus by LC-MS/MS analysis; assay type: ADME, organism-based; conditions: in vivo
[8] = Dissociation constant, pKa of the compound; assay type: physicochemical
[9] = Drug level in po dosed rat plasma treated with 5-chloro-4-(((1R,6R)-6-(ethylamino)-2-(4-fluorophenyl)cyclohex-2-enyl)methoxy)-2-fluoro-N-(thiazol-4-yl)benzenesulfonamide; assay type: ADME, organism-based; conditions: in vivo
[10] = AUC in Sprague-Dawley rat at 2 mg/kg administered as single dose via oral gavage by LC-MS/MS analysis; assay type: ADME, organism-based; conditions: in vivo
Rattus norvegicus [11] = test: Unbound AUC (0 to last) in Sprague-Dawley rat at 2 mg/kg administered as single dose via oral gavage by LC-MS/MS analysis; assay type: ADME, organism-based; conditions: in vivo
[12] = Fraction unbound in human plasma at 2 uM after 4 hrs by LC-MS/MS analysis; assay type: ADME, cell-free
[13] = Volume of distribution at steady state in Sprague-Dawley rat administered as single iv bolus by LC-MS/MS analysis; assay type: ADME, organism-based; conditions: in vivo, read-out: Vdss
[14] = AUC (0 to last) in Sprague-Dawley rat at 10 mg/kg administered as single dose via oral gavage by LC-MS/MS analysis; assay type: ADME, organism-based; set-up: dose 10 mg/kg, route oral, time 0 - last; conditions: in vivo
[15] = AUC (0 to last) in Sprague-Dawley rat at 3 mg/kg administered as single iv bolus by LC-MS/MS analysis; assay type: ADME, organism-based; set-up: dose 3 mg/kg, route intravenous, time 0 - last; conditions: in vivo
[16] = biological target: Voltage-gated inwardly rectifying potassium channel KCNH2 (Homo sapiens, UniProt Q12809)
Rattus norvegicus [17] = test: Antinociceptive activity in Sprague-Dawley rat formalin-induced nociception model assessed as inhibition of formalin-induced flinches in phase 1 at 30 mg/kg, po administered via oral gavage 60 mins before formalin challenge measured for 1 hr post dose; assay type: functional, organism-based
in vitro [18] = conditions: human, Caco-2
Cytochrome P450 2D6 = Cytochrome P450 2D6 (Homo sapiens, UniProt P10635)
[19] = Volume of distribution at steady state in Sprague-Dawley rat at 3 mg/kg administered as single iv bolus by LC-MS/MS analysis; assay type: ADME, organism-based; conditions: in vivo, read-out: Vdss
Cytochrome P450 1A2 = biological target: T1, Cytochrome P450 1A2 (Homo sapiens, UniProt P05177)
T1 sequence (P05177 whole entry): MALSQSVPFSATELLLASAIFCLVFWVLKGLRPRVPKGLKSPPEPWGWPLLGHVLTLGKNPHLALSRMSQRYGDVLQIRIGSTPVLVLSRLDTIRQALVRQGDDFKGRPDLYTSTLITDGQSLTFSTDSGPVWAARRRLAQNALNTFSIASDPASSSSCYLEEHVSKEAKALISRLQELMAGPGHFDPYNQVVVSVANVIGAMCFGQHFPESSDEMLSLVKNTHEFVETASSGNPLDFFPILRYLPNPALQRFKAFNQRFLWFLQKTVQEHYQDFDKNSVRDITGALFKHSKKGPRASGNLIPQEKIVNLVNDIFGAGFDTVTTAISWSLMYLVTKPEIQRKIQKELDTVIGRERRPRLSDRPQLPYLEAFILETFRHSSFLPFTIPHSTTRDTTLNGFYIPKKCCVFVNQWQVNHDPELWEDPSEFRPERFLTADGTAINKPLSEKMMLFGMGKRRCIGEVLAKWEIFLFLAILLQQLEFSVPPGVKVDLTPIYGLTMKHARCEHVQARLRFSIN

Homo sapiens [20] = organism: Homo sapiens; test: Selectivity ratio of IC50 for human Nav1.4 to IC50 for human Nav1.7 expressed in CHO-K1 cells; assay type: cell-based
[21] = Unbound plasma concentration in Sprague-Dawley rat spinal nerve ligation model at 100 mg/kg administered as single dose via oral gavage measured after 1 hr by LC-MS/MS analysis; assay type: ADME, organism-based; conditions: in vivo
[22] = Unbound plasma concentration in Sprague-Dawley rat spinal nerve ligation model at 100 mg/kg administered as single dose via oral gavage measured after 2 hrs by LC-MS/MS analysis; assay type: ADME, organism-based; conditions: in vivo
physchem [23] = conditions: buffer, pH 7.4
[24] = Initial plasma concentration in Sprague-Dawley rat at 3 mg/kg administered as single iv bolus by LC-MS/MS analysis; assay type: ADME, organism-based
[25] = Oral bioavailability in Sprague-Dawley rat at 10 mg/kg administered as single dose via gavage by LC-MS/MS analysis; assay type: ADME, organism-based; conditions: in vivo
Rattus norvegicus [26] = test: Antiallodynic activity in Sprague-Dawley rat spinal nerve ligation model assessed as reduction in mechanical allodynia by measuring paw withdrawal threshold at 100 mg/kg, po measured at 2 hrs post dose; assay type: functional, organism-based
physchem [27] = conditions: buffer, pH 7.4; remark: listed apart in the source
[28] = Clearance in Sprague-Dawley rat at 3 mg/kg administered as single iv bolus by LC-MS/MS analysis; assay type: ADME, organism-based; conditions: in vivo
Cytochrome P450 3A4 = Cytochrome P450 3A4 (Homo sapiens, UniProt P08684)
Cytochrome P450 2C19 = Cytochrome P450 2C19 (Homo sapiens, UniProt P33261)
[29] = biological target: Sodium channel protein type 5 subunit alpha (Homo sapiens, UniProt Q14524); test: Inhibition of human Nav1.5 expressed in HEK293 cells at -120 mV holding potential incubated over 5 mins measured at 15 secs interval by Qpatch clamp assay; assay type: cell-based
Homo sapiens [30] = organism: Homo sapiens; test: Selectivity ratio of IC50 for human Nav1.5 expressed in HEK293 cells to IC50 for human Nav1.7 expressed in CHO-K1 cells; assay type: cell-based
[31] = Plasma concentration in Sprague-Dawley rat spinal nerve ligation model at 100 mg/kg administered as single dose via oral gavage measured after 4 hrs by LC-MS/MS analysis; assay type: ADME, organism-based
Rattus norvegicus [32] = test: Antinociceptive activity in Sprague-Dawley rat formalin-induced nociception model assessed as inhibition of formalin-induced flinches in phase 2 at 30 mg/kg, po administered via oral gavage 60 mins before formalin challenge measured for 1 hr post dose; assay type: functional, organism-based
[33] = Intrinsic clearance in human liver microsomes at 1 uM after 60 mins in presence of NADPH by LC-MS/MS analysis; assay type: ADME, microsome; conditions: read-out: CLH
[34] = Half life in Sprague-Dawley rat at 10 mg/kg administered as single dose via oral gavage by LC-MS/MS analysis; assay type: ADME, organism-based; conditions: in vivo
[35] = Cmax in Sprague-Dawley rat at 10 mg/kg administered as single dose via oral gavage by LC-MS/MS analysis; assay type: ADME, organism-based; set-up: dose 10 mg/kg, route oral; conditions: in vivo
[36] = Plasma concentration in Sprague-Dawley rat spinal nerve ligation model at 100 mg/kg administered as single dose via oral gavage measured after 1 hr by LC-MS/MS analysis; assay type: ADME, organism-based
Cytochrome P450 2C9 = Cytochrome P450 2C9 (Homo sapiens, UniProt P11712)
[37] = Intrinsic clearance in rat liver microsomes at 1 uM after 60 mins in presence of NADPH by LC-MS/MS analysis; assay type: ADME, microsome; conditions: read-out: CLH
[38] = Drug uptake in Sprague-Dawley rat dorsal root ganglion at 100 mg/kg, ig measured after 2.5 hrs by LC-MS/MS analysis; assay type: ADME, organism-based; conditions: in vivo, po
[39] = Plasma concentration in Sprague-Dawley rat spinal nerve ligation model at 100 mg/kg administered as single dose via oral gavage measured after 2 hrs by LC-MS/MS analysis; assay type: ADME, organism-based
[40] = biological target: Sodium channel protein type 9 subunit alpha (Homo sapiens, UniProt Q15858); test: Inhibition of human Nav1.7 expressed in CHO-K1 cells at -120 mV holding potential incubated over 5 mins measured at 15 secs interval by Qpatch clamp assay; assay type: cell-based
[41] = Tmax in Sprague-Dawley rat at 10 mg/kg administered as single dose via oral gavage by LC-MS/MS analysis; assay type: ADME, organism-based; conditions: in vivo
[42] = AUC in Sprague-Dawley rat at 10 mg/kg administered as single dose via oral gavage by LC-MS/MS analysis; assay type: ADME, organism-based; conditions: in vivo
Rattus norvegicus [43] = test: Unbound AUC (0 to last) in Sprague-Dawley rat at 10 mg/kg administered as single dose via oral gavage by LC-MS/MS analysis; assay type: ADME, organism-based; conditions: in vivo
[44] = Half life in Sprague-Dawley rat at 3 mg/kg administered as single iv bolus by LC-MS/MS analysis; assay type: ADME, organism-based; conditions: in vivo
[45] = Unbound plasma concentration in Sprague-Dawley rat spinal nerve ligation model at 100 mg/kg administered as single dose via oral gavage measured after 4 hrs by LC-MS/MS analysis; assay type: ADME, organism-based; conditions: in vivo
in vitro [46] = conditions: human, Caco-2; remark: listed apart in the source

Chain of Sodium channel protein type 4 subunit alpha (P35499 whole entry): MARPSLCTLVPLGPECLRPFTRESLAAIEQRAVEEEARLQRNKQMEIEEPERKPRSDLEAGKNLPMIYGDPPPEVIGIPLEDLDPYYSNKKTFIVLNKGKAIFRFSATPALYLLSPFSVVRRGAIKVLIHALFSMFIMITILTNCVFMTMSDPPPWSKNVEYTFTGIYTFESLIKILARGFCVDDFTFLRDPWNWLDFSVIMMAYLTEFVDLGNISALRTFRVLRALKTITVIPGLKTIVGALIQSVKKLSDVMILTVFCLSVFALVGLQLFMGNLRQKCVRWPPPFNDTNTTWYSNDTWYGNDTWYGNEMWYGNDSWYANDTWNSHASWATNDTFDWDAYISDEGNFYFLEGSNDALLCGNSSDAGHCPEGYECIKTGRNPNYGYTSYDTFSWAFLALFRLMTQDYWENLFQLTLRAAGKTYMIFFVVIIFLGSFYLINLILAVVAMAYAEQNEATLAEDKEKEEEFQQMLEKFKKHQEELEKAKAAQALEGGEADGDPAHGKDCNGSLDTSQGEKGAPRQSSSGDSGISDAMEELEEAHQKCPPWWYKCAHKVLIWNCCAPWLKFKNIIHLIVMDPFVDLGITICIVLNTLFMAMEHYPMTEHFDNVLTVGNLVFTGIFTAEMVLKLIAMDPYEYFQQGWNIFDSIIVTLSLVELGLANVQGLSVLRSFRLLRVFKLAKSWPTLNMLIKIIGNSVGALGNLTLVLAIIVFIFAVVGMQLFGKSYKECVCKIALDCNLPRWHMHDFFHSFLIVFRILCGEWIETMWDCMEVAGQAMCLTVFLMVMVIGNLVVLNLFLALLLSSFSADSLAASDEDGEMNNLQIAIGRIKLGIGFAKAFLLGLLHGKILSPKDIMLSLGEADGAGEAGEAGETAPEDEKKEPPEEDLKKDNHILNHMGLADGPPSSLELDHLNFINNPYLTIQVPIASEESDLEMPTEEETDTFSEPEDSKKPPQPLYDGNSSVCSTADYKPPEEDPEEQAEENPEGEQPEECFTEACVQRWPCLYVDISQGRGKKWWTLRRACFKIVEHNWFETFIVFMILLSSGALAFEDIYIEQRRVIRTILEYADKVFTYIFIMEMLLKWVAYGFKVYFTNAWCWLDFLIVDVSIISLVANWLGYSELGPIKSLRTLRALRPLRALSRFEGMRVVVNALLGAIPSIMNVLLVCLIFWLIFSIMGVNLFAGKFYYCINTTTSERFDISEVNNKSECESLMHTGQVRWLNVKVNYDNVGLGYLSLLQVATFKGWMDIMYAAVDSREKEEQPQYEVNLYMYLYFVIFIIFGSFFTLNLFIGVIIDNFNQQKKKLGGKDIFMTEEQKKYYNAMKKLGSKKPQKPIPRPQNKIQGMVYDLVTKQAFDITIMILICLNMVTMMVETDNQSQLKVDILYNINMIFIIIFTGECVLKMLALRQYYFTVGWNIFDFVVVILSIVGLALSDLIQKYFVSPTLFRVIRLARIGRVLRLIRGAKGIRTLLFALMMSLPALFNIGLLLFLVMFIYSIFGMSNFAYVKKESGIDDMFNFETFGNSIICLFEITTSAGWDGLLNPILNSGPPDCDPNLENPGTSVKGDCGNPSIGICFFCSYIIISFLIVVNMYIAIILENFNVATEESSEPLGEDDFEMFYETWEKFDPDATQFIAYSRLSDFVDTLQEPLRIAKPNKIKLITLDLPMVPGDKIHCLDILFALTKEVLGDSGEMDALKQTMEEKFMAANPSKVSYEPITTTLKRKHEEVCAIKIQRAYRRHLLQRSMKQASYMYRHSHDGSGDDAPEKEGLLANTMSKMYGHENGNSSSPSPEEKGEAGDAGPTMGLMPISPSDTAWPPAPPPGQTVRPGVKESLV
Chain of Cytochrome P450 3A4 (P08684 whole entry): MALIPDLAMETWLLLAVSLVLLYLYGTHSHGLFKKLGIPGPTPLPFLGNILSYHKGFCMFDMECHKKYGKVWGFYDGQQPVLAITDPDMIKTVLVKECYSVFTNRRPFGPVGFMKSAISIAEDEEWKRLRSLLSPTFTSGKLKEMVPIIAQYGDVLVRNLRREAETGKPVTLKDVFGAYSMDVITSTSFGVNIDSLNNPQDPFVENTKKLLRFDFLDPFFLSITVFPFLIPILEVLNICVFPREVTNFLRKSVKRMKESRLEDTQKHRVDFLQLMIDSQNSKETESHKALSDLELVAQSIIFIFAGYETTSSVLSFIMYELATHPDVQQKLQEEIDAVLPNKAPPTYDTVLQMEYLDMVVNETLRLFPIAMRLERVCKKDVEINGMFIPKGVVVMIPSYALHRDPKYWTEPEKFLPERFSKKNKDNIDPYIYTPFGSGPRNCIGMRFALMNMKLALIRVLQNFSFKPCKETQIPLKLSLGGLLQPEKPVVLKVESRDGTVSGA
Chain of Cytochrome P450 2C9 (P11712 whole entry): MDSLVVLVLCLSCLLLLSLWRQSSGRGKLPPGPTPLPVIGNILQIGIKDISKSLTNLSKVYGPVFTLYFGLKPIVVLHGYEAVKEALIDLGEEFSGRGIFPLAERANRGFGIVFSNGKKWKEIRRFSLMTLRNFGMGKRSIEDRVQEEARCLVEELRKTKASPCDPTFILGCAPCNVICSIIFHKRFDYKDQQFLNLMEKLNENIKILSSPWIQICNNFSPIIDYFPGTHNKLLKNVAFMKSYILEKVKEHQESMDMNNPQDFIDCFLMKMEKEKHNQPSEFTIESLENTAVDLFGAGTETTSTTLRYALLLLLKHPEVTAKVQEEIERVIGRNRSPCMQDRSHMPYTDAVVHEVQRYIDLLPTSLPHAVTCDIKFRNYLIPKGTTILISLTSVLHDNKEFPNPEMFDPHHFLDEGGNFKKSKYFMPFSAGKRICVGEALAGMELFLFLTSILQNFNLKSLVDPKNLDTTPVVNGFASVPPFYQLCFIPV
Chain of Sodium channel protein type 5 subunit alpha (Q14524 whole entry): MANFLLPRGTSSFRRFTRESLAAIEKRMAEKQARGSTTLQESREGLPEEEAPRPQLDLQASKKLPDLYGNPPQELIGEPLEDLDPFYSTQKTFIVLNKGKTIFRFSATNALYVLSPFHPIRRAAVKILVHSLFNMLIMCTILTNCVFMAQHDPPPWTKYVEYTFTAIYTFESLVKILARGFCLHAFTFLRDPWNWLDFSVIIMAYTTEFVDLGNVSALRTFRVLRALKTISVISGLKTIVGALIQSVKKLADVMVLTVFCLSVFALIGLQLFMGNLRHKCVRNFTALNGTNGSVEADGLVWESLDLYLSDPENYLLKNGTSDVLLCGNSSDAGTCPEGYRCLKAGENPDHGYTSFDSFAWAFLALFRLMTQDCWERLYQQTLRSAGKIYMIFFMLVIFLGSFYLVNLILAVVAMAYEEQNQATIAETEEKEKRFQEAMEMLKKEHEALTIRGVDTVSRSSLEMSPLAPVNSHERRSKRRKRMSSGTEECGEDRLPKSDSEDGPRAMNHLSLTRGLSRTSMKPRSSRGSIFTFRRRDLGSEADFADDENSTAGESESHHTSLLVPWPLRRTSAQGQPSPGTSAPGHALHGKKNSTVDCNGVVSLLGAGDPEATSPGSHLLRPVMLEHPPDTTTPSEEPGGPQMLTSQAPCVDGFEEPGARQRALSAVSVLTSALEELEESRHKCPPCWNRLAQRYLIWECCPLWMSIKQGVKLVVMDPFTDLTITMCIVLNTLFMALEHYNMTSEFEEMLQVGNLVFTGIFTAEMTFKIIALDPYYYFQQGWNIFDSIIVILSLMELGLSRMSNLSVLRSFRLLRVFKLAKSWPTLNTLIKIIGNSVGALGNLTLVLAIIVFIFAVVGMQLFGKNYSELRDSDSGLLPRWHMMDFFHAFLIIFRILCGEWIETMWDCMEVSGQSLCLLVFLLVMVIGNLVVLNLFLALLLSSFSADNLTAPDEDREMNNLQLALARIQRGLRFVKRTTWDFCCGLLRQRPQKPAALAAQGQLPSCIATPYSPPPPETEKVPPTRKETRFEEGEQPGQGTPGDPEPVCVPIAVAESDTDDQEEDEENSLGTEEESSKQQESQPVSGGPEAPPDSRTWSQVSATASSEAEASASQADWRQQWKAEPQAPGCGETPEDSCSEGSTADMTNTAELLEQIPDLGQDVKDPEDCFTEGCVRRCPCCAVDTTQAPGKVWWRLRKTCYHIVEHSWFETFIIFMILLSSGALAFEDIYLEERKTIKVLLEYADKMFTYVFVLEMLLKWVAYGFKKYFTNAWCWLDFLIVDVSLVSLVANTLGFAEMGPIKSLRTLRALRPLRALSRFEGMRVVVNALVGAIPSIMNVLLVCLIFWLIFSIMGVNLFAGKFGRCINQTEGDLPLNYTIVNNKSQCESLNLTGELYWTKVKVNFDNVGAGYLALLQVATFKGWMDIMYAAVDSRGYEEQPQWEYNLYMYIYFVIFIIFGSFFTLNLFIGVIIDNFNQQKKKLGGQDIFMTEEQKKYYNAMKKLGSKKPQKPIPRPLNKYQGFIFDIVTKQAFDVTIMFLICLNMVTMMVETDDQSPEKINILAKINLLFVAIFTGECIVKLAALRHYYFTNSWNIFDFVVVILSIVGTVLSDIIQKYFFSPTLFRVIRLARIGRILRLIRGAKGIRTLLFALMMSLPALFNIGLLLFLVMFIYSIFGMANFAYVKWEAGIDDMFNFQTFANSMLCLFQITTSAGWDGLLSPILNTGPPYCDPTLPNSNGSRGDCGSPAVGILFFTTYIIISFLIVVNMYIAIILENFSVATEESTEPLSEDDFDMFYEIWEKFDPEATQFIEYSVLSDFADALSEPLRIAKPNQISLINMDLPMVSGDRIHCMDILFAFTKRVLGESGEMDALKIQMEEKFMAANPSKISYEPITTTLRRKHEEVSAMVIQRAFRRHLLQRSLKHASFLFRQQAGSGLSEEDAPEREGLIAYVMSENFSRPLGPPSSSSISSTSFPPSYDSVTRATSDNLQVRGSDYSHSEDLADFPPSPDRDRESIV

Structure (SMILES): N[C@@H]1CCC=C(c2ccc(F)cc2)[C@H]1COc1cc(F)c(S(=O)(=O)Nc2cscn2)cc1Cl
fraction unbound at 4 h, 2 µM [1]: 0.02 | half-life [2]: 2.74 h | Cmax [3]: 50 nM | Kp at 2 h [4]: 0.13 | C0 [5]: 410 nM | IC50 [6]: 4 µM | clearance [7]: 39 to 39.2 mL/min/kg | pKa [8]: 6.13 to 9.05 | Drug uptake [9]: Active | AUC [10]: 0.25 µM·h | fAUClast (Rattus norvegicus [11]): 0.005 µM·h | fraction unbound at 4 h, 2 µM [12]: 0.008 | Vd [13]: 8.91 L/kg

fraction unbound at 4 h, 2 µM [1]: 0.029 | AUC(0-t) [14]: 4.86 µM·h | AUC(0-t) [15]: 4.92 µM·h | Papp A→B at 2 h, 2 µM (in vitro [18]): 0.04 ×10⁻⁶ cm/s | IC50 (Cytochrome P450 2D6): 3 µM | Vd [19]: 5.77 L/kg | IC50 (Cytochrome P450 1A2): > 50 µM | Cp(f) [21]: 108 nM | Cp(f) [22]: 110 nM | solubility thermodynamic (physchem [23]): 135 µM | C0 [24]: 2800 nM | bioavailability [25]: 30% | logD (physchem [27]): 1.5 | clearance [28]: 19.8 mL/min/kg | IC50 (Cytochrome P450 3A4): 33 µM | IC50 (Cytochrome P450 2C19): 26.2 µM | IC50 [6]: 2.9 µM | clearance [7]: 19.8 mL/min/kg | pKa [8]: 7.09 to 9.18 | concentration at 4 h [31]: 3160 nM | CLint scaled at 1 µM [33]: 17.5 mL/min/kg | half-life [34]: 3.39 h | Cmax [35]: 660 nM | concentration at 1 h [36]: 3740 nM | IC50 (Cytochrome P450 2C9): 11.8 µM | CLint scaled at 1 µM [37]: 30.4 mL/min/kg | Drug uptake [38]: 3.1 µM/g | fraction unbound at 4 h, 2 µM [12]: 0.004 | concentration at 2 h [39]: 3820 nM | IC50 [40]: 0.088 µM | Tmax [41]: 2.67 h | AUC [42]: 4.86 µM·h | fAUClast (Rattus norvegicus [43]): 0.141 µM·h | half-life [44]: 3.64 h | Cp(f) [45]: 91 nM | Vd [13]: 5.77 L/kg | efflux ratio at 2 h, 2 µM (in vitro [46]): 251
Structure (SMILES): Cl.N[C@@H]1CCC=C(c2ccc(F)cc2)[C@H]1CNc1cc(F)c(S(=O)(=O)Nc2cscn2)cc1Cl
IC50 [16]: 4.6 µM | inhibition (Rattus norvegicus [17]): inactive | Ratio IC50 (Homo sapiens [20]): > 30 | Activity (Rattus norvegicus [26]): Active | IC50 [29]: 4.02 µM | Ratio IC50 (Homo sapiens [30]): > 30 | inhibition (Rattus norvegicus [32]): Active

Source: ChEMBL document CHEMBL4177611, “Discovery of aminocyclohexene analogues as selective and orally bioavailable hNav1.7 inhibitors for analgesia” (Bioorg Med Chem Lett, 2017)
